Measurements published in patent US10975056B2 (GlaxoSmithKline Intellectual Property Development Limited, priority 2016, dated 2021).
Several values for one entry are separate records, joined by “and”; a condition that tells them apart may be missing. Equal values may be shown once. Read-outs that look alike come from different tables or passages of the source.

Experiments:
[1] = biological target: DNMT1 (Homo sapiens, UniProt P26358); assay: DNMT1 biochemical activity, breaklight assay and/or SPA assay
Chain of DNMT1 (P26358 whole entry, looked up): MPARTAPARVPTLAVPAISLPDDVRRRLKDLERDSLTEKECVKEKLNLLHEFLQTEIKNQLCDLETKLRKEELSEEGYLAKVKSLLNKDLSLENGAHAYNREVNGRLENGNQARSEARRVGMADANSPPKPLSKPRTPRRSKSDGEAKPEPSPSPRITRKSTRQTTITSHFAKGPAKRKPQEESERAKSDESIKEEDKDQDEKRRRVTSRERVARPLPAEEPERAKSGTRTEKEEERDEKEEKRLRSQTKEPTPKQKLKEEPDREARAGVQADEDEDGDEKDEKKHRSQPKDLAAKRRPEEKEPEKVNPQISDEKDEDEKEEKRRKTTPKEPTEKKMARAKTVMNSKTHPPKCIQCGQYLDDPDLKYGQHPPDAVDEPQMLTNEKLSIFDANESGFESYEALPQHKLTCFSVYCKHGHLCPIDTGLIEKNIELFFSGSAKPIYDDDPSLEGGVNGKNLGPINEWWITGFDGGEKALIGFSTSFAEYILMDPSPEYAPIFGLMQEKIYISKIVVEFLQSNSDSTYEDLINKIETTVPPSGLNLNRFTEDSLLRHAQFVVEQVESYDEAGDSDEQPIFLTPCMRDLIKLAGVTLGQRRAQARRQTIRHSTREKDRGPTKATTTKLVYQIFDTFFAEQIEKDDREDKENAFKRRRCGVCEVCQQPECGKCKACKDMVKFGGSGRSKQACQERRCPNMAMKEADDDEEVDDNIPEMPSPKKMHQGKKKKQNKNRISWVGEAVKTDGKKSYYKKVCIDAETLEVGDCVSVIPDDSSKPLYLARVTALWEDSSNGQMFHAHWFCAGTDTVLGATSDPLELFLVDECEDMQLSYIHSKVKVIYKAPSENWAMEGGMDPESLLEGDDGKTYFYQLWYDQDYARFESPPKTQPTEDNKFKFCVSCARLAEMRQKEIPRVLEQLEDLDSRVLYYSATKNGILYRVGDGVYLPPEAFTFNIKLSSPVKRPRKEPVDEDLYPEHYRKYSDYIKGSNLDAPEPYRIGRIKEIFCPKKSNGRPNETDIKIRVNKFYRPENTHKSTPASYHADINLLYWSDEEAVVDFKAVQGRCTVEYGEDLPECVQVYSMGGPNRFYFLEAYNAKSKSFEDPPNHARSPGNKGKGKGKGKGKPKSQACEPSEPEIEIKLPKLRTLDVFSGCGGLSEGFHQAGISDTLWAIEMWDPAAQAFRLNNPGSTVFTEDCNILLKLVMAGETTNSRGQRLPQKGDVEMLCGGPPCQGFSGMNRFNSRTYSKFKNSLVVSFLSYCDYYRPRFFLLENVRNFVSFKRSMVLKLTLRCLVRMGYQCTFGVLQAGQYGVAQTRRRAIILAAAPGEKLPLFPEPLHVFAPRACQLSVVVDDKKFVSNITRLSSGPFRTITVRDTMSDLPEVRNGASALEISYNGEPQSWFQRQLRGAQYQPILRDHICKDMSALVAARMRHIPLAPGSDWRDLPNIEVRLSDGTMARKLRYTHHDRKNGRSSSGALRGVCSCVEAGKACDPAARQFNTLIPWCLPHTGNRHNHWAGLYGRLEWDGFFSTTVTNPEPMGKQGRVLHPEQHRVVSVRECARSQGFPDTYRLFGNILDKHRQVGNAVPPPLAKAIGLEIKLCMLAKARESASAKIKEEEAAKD

[2] = test system: erythroid progenitor cells (EPCs); assay: Fetal hemoglobin (HbF) ELISA in day 7 erythroid progenitor cells; format: cell-based, human; conditions: Homo sapiens, Erythroid progenitor cell, HbF ELISA, day 7 EPCs, 5 days; read-out: EPC ELISA (pEC50 category) (converted);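 note: for fetal hemoglobin induction normalized to vehicle-treated cells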
How it was run: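 Day 7 EPCs from human bone marrow CD34+ cells were plated at 1,000 cells/well in media with 3 U/mL rhEPO. They were exposed to a 22-point dilution ([…]) for 5 days at 37 °C. Lysate HbF was measured by sandwich ELISA (OD450) and normalized to DMSO control wells.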

[3] = binned activity in either the breaklight or the SPA assay
[4] = binned activity in either the breaklight or the SPA assay, read-out: DNMT1 BioChemical (pIC50 category) (converted)

Row | DNMT1 BioChemical (pIC50 category) [1, 3] | EC50 [2] [nM] | IC50 [1, 4] [nM] | IC50 ([1]; breaklight assay and/or SPA assay, repeated experimental runs, read-out: average pIC50 against DNMT1 (converted)) | Compound
1 | D (Category D: ≥6.5) | < 316 | – | – | CCc1c(C#N)c(SC(C(N)=O)c2ccccc2)nc(N2CCOC(CN(C)C)C2)c1C#N (centres unmarked) [Example 558, 2-((3,5-dicyano-6-(2-((dimethylamino)methyl)morpholino)-4-ethylpyridin-2-yl)thio)-2-phenylacetamide]
2 | – | < 316 | 316 to 1000 | – | CCCS(=O)(=O)N1CCN(c2nc(SC(C(N)=O)c3ccccc3)c(C#N)c(CC)c2C#N)CC1 (centres unmarked) [Example 158, 2-((3,5-Dicyano-4-ethyl-6-(4-(propylsulfonyl)piperazin-1-yl)pyridin-2-yl)thio)-2-phenylacetamide]
3 | D (Category D: ≥6.5) | < 316 | – | – | CCc1c(C#N)c(S[C@@H](C(N)=O)c2ccccc2)nc(N(C)CCO)c1C#N (single isomer, unassigned) [Example 431]
4 | – | 1000 to 31600 | 316 to 1000 | – | CCc1c(C#N)c(SCc2ccc(CNC(C)=O)cc2)nc(SC(C(N)=O)c2ccccc2)c1C#N (centres unmarked) [Example 336, 2-(6-(4-(Acetamidomethyl)benzylthio)-3,5-dicyano-4-ethylpyridin-2-ylthio)-2-phenylacetamide]
5 | D (Category D: ≥6.5) | < 316 | – | – | CCc1c(C#N)c(SC(C(N)=O)c2ccccc2)nc(N(C)CC(=O)NCCO)c1C#N (centres unmarked) [Example 669, 2-((6-((2-amino-2-oxo-1-phenylethyl)thio)-3,5-dicyano-4-ethylpyridin-2-yl)(methyl)amino)-N-(2-hydroxyethyl)acetamide]
6 | – | > 31600 | 316 to 1000 | – | CCc1c(C#N)c(C)nc(SCc2ccc(CNC(C)=O)cc2)c1C#N [Example 284, N-(4-(((3,5-Dicyano-4-ethyl-6-methylpyridin-2-yl)thio)methyl)benzyl)acetamide]
7 | D (Category D: ≥6.5) | < 316 | – | – | CCc1c(C#N)c(SC(C(N)=O)c2ccccc2)nc(N2CCC(CN)C2)c1C#N (centres unmarked) [Example 525, 2-((6-(3-(aminomethyl)pyrrolidin-1-yl)-3,5-dicyano-4-ethylpyridin-2-yl)thio)-2-phenylacetamide]
8 | D (Category D: ≥6.5) | 316 to 1000 | – | – | CCc1c(C#N)c(SCc2ccc(NS(C)(=O)=O)cc2)nc(N2CCCN(C)CC2)c1C#N [Example 299, N-(4-(((3,5-Dicyano-4-ethyl-6-(4-methyl-1,4-diazepan-1-yl)pyridin-2-yl)thio)methyl)phenyl) methanesulfonamide]
9 | – | 1000 to 31600 | 316 to 1000 | – | CCc1c(C#N)c(SCc2ccc(N)c(F)c2)nc(N2CCCN(C)CC2)c1C#N [Example 360, 2-((4-Amino-3-fluorobenzyl)thio)-4-ethyl-6-(4-methyl-1,4-diazepan-1-yl)pyridine-3,5-dicarbonitrile]
10 | – | 316 to 1000 | 316 to 1000 | – | CCc1c(C#N)c(SC(C(N)=O)c2ccccc2)nc(N(C)CCOC(=O)[C@@H](N)C(C)C)c1C#N (some centres unmarked) [Example 275]
11 | – | 1000 to 31600 | 1000 to 31600 | – | CCc1c(C#N)c(SC(C(N)=O)c2ccccc2)nc(N2CCC(OCCOP(=O)(O)O)CC2)c1C#N (centres unmarked) [Example 154, 2-((1-(6-((2-Amino-2-oxo-1-phenylethyl)thio)-3,5-dicyano-4-ethylpyridin-2-yl)piperidin-4-epoxy)ethyldihydrogen phosphate]
12 | D (Category D: ≥6.5) | > 31600 | – | – | CCc1c(C#N)c(SC(C(N)=O)c2ccc(C(N)=O)cc2)nc(N2CCCN(C)CC2)c1C#N (centres unmarked) [Example 368, 4-(2-Amino-1-((3,5-dicyano-4-ethyl-6-(4-methyl-1,4-diazepan-1-yl)pyridin-2-yl)thio)-2-oxoethyl)benzamide]
13 | – | 316 to 1000 | 1000 to 31600 | ≥ 1000 nM and 2000 nM | CCc1c(C#N)c(SC(C(N)=O)c2cncc(C)c2)nc(N2CCCN(C)CC2)c1C#N (centres unmarked) [Example 266]
14 | – | 1000 to 31600 | 316 to 1000 | – | N#Cc1c(SC(C(N)=O)c2ccccc2)nc(N2CCN(CCCN)CC2)c(C#N)c1C1CC1 (centres unmarked) [Example 124, 2-((6-(4-(3-Aminopropyl)piperazin-1-yl)-3,5-dicyano-4-cyclopropylpyridin-2-yl)thio)-2-phenylacetamide]
